{"source": "ChEMBL document CHEMBL5465560", "about": "“Selectivity Literature for EUbOPEN Chemogenomic Library” (2024)", "key": {"[1]": {"biological_target": "MAP/microtubule affinity-regulating kinase 3 (Homo sapiens) (UniProt P27448)", "sequence (P27448 whole entry, looked up)": "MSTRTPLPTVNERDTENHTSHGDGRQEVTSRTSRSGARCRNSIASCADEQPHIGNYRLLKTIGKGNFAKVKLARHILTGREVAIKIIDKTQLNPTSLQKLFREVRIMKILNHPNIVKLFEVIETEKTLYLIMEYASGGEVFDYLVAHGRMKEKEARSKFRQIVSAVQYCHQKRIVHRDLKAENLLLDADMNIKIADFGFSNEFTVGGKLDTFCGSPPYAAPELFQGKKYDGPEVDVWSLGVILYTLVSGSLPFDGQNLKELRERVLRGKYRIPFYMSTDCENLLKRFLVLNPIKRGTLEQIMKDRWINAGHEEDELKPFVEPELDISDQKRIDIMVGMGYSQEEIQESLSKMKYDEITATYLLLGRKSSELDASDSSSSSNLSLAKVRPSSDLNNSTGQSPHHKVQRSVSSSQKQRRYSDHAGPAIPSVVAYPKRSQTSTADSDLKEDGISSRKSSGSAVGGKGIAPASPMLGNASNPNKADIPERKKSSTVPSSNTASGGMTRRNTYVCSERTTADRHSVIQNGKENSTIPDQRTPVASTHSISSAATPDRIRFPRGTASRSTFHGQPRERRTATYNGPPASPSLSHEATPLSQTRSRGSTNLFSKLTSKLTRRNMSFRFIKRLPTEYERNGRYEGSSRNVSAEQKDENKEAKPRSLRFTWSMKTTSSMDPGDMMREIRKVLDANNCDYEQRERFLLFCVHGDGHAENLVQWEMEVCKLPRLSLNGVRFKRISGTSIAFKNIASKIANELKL", "experiment": "Selectivity interaction (Kinase panel (Invitrogen)) EUB0000639a MARK3", "details": "at 200 nM"}, "[2]": {"biological_target": "T1, Sphingosine kinase 2 (Homo sapiens) (UniProt Q9NRA0)", "T1 sequence (whole entry)": "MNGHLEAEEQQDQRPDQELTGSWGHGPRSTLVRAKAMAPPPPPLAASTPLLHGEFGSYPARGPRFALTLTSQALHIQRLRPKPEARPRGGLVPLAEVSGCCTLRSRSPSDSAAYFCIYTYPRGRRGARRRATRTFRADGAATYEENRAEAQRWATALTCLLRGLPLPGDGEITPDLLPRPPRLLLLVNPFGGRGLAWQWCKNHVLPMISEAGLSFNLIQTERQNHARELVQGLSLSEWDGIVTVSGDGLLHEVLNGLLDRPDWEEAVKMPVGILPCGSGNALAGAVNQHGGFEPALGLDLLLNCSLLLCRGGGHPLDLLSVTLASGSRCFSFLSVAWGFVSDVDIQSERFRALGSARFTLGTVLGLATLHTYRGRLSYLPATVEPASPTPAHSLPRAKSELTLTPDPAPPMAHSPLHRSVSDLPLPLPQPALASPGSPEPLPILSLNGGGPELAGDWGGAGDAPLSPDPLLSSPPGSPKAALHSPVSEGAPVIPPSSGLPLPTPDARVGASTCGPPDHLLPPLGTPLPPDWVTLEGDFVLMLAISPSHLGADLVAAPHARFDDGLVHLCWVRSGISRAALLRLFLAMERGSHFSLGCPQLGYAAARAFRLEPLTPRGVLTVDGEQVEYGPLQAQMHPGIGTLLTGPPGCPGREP", "experiment": "Selectivity interaction (Kinase panel (Invitrogen)) EUB0000639a SPHK2", "details": "at 200 nM"}, "[3]": {"biological_target": "T2, Serine/threonine-protein kinase D3 (Homo sapiens) (UniProt O94806)", "T2 sequence (whole entry)": "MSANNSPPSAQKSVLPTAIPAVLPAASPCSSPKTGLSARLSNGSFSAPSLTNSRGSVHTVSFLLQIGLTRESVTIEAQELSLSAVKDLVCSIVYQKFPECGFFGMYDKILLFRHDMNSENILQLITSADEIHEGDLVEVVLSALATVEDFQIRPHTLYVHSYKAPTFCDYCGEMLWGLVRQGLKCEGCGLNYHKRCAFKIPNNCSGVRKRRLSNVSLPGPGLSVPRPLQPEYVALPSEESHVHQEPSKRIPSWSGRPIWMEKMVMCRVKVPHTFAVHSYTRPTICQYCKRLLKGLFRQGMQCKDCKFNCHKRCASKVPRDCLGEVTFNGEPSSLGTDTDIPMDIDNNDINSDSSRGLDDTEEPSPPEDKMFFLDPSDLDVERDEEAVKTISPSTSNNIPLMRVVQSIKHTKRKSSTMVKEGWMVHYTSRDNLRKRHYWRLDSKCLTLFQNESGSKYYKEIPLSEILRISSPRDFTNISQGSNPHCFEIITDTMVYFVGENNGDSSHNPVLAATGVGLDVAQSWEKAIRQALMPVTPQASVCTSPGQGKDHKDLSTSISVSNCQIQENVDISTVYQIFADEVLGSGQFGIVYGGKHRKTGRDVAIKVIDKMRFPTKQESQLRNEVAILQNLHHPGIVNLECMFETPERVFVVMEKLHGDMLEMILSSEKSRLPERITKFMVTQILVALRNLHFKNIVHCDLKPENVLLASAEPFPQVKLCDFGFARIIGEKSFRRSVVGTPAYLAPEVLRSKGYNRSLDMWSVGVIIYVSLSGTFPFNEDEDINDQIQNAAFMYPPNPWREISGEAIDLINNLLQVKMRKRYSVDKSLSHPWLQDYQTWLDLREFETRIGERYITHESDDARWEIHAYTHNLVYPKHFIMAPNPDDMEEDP", "experiment": "Selectivity interaction (KinomeScan (DiscoverX)) EUB0000607a PRKD3", "details": "at 10 µM"}, "[4]": {"biological_target": "T3, Serine/threonine-protein kinase LATS2 (Homo sapiens) (UniProt Q9NRM7)", "T3 sequence (whole entry)": "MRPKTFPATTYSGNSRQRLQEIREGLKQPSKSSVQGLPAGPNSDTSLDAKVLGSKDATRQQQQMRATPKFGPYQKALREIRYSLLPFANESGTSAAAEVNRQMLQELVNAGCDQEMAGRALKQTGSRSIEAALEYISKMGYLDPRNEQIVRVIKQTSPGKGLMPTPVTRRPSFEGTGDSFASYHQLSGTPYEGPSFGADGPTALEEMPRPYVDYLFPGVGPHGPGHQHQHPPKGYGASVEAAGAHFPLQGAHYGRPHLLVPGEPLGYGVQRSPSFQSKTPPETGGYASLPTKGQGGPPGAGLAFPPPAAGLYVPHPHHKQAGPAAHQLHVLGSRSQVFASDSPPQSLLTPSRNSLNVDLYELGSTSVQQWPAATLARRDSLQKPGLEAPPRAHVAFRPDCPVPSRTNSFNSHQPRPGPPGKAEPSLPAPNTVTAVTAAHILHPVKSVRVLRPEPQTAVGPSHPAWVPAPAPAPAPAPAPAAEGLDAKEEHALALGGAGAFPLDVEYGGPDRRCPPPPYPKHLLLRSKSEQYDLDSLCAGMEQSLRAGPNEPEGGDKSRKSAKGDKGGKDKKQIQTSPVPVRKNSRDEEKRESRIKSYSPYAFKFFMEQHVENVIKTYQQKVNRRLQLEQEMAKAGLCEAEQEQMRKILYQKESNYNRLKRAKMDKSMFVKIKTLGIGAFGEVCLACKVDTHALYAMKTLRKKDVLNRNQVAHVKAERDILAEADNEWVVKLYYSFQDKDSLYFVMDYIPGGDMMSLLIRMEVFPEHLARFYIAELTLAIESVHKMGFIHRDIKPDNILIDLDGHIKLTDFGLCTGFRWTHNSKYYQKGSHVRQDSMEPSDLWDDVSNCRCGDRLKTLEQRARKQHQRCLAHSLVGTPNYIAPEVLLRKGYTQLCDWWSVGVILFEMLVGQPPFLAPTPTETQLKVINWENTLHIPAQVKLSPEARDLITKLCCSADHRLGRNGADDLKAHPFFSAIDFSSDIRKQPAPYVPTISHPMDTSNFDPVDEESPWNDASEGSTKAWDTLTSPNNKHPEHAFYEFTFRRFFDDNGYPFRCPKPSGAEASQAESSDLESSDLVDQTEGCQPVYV", "experiment": "Selectivity interaction (KinomeScan (DiscoverX)) EUB0000607a LATS2", "details": "at 10 µM"}}}
{"smiles": "CC[C@@H]1[C@H](F)C(=O)N[C@@H]1COc1nccc2cc(C(N)=O)c(OC)cc12", "note": "[ZIMLOVISERTIB]", "values": [{"measurement": "% of inhibition", "setting": "[1]", "value": 12.4, "unit": "%"}, {"measurement": "% of inhibition", "setting": "[2]", "value": -0.837, "unit": "%"}]}
{"smiles": "CNC(=O)Nc1ccc(-c2nc(N3CC4CCC(C3)O4)c3cnn(C4CCC5(CC4)OCCO5)c3n2)cc1", "values": [{"measurement": "% of control", "setting": "[3]", "value": 100, "unit": "%"}, {"measurement": "% of control", "setting": "[4]", "value": 76, "unit": "%"}]}
